Source: patent US20210085686A1, “DELIVERY OF ACTIVE AGENTS USING NANOFIBER WEBS” (CorMedix Inc., priority 2015, published 2021)
Converted amounts (≈) assume the structure as drawn.

Key:
Microbes = settings: microbes killed and toxins inactivated; cited from earlier work
[1] = maximum solubility of taurolidine in HFP (preliminary testing); type: physicochemical; settings: organic solvent or mixture; solvent 1,1,1,3,3,3-hexafluoro-2-propanol (HFP)
Method: All of the polymers and the taurolidine were dissolved in 1,1,1,3,3,3-hexafluoro-2-propanol (HFP; Oakwood Chemical) for processing into small diameter (SD) and large diameter (LD) fibers. […] Thus, for preliminary testing, the taurolidine concentration in the electrospinning solutions was maintained at approximately 100 mg/ml.

## O=S1(=O)CCN(CN2CCS(=O)(=O)NC2)CN1 [taurolidine, bis(1,1-dioxoperhydro-1,2,4-thiadiazinyl-4)-methane]
Microbes
  destruction time in vitro: 30 min
[1]
  solubility: ~218 mg/mL (≈ 767 mM)
